Laboratory results reported in US8206690B2, “Oral health composition” (Mars Incorporated, priority 2006, dated 2012).

Key:
Assay type in all cases: cell-based, dogs
[1] = system: biofilms representative of canine dental plaque; assay: Canine plate biofilm assay (PBA): biomass quantification (crystal violet assay); details: 48 hours, extracts at 500 μg/ml, OD595 vs no active controls
Procedure: (§1) The assay requires fresh supragingival canine dental plaque and saliva for inoculation. The inoculum consists of pooled dental plaque and unfiltered saliva sampled from a group of 14 dogs, varying in age, breed and oral health status.
(§2) The plaque and saliva were resuspended in artificial saliva to form the inoculum of approximately 15% plaque and 30% saliva.
(§3) The plate biofilm assay (PBA) utilises a 24 well plate format in which biofilms, representative of canine dental plaque, are grown on hydroxyapatite (HA) discs. Prior to being introduced to the 24 well assay plate, each HA disc is preconditioned for 2 hours in a solution of 50% filter sterilised canine saliva in artificial canine saliva. The preconditioning step stimulates the formation of a salivary pellicle on the HA disc surface. […] Each HA disc, with the exception of those being used for biomass quantification, is placed into 500 μl PBS and vortex mixed for 30 seconds to remove biofilm growth from the disc into solution. […] Biofilm-covered HA discs that are being used for biomass quantification are removed from the 24 well assay plate and used directly in the crystal violet assay.
The total amount of biofilm grown on the HA discs was quantified using the crystal violet staining method. Biomass was represented as being directly proportional to the OD reading at 595 nm (OD595) of the samples compared to controls. […]

Aerobes = assay: Canine plate biofilm assay (PBA): bacterial viable counts, aerobes; details: extracts at 500 μg/ml, counted after 2 days, vs controls
Procedure: as §1, §2
as §3, with “saliva.” for “saliva. The preconditioning step stimulates the formation of a salivary pellicle on the HA disc surface.”
(§4) Viable numbers of bacteria were quantified using Columbia blood agar plates supplemented with haemin and menadione. Aerobes were counted after incubation for 2 days and anaerobes, including black pigmenting colonies (BPC), were counted after incubation at appropriate conditions for 9 days. […]

[2] = system: black pigmenting colonies (BPC); assay: Canine plate biofilm assay (PBA): bacterial viable counts, black pigmenting colonies; details: extracts at 500 μg/ml, counted after 9 days, vs controls
Procedure: as §1, §2
as §3, with “saliva.” for “saliva. The preconditioning step stimulates the formation of a salivary pellicle on the HA disc surface.”
as §4

anaerobes = assay: Canine plate biofilm assay (PBA): bacterial viable counts, anaerobes; details: extracts at 500 μg/ml, counted after 9 days, vs controls
Procedure: as §1, §2
as §3, with “saliva.” for “saliva. The preconditioning step stimulates the formation of a salivary pellicle on the HA disc surface.”
as §4

[3] = system: Trypsin-like protease activity; assay: Canine plate biofilm assay (PBA): protease activity (liquid BAPNA assay); details: 48 hours, extracts at 500 μg/ml, vs controls
Procedure: as §1, §2, §3
Trypsin-like protease activity was measured using the liquid BAPNA assay, a colourimetric assay in which the amount of trypsin present in a sample is directly proportional to the intensity of the colour developed. […]

[H]/N=C(\N/C(=N/[H])NCCCCCCNC(=N)NC(=N)Nc1ccc(Cl)cc1)Nc1ccc(Cl)cc1 [Chlorhexidine, chlorhexidine]
Biomass (% reduction) [1]: 94.40% | Aerobe (log 10 reduction) (Aerobes): 2.87 log 10 reduction | BPC (Log 10 reduction) [2]: 2.74 Log 10 reduction | Anaerobe (Log 10 reduction) (anaerobes): 2.48 Log 10 reduction | Protease (% reduction) [3]: 95.76%
